Laboratory results taken from US6358885B1, “Substituted phenylheterocyclic herbicides” (Mississippi State University, priority 1992, dated 2002).

Legend:
Test in all cases: Test B preemergence/postemergence greenhouse plant response rating 0 to 10
purple nutsedge = type: in vivo, Cyperus rotundus; settings: for Plant response rating, Nutsedge: 0 to 10 scale; for Plant response rating (0 to 10 scale), Nutsedge: Rate 100 g/ha
Summary of the method: (§1)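 Both application timings were run together: seeds got compound preemergence, and established seedlings (two to eighteen cm) got it postemergence. Non-phytotoxic solvent carried the chemical. Ratings are visual, versus controls, at twelve to sixteen days.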

sorghum = type: in vivo, Sorghum bicolor; settings: for Plant response rating, Sorghum: 0 to 10 scale; for Plant response rating (0 to 10 scale), Sorghum: Rate 100 g/ha
Summary of the method: as §1

cotton = type: in vivo, Gossypium hirsutum; settings: for Plant response rating, Cotton: 0 to 10 scale
Summary of the method: as §1

sugar beet = type: in vivo, Beta vulgaris; settings: for Plant response rating, Sugar beet: 0 to 10 scale; for Plant response rating (0 to 10 scale), Sugar beet: Rate 100 g/ha
Summary of the method: as §1

blackgrass = type: in vivo, Alopecurus myosuroides; settings: for Plant response rating, Blackgrass: 0 to 10 scale
Summary of the method: as §1

wheat = type: in vivo, Triticum aestivum; settings: for Plant response rating, Wheat: 0 to 10 scale; for Plant response rating (0 to 10 scale), Wheat: Rate 100 g/ha
Summary of the method: as §1

wild oat = type: in vivo, Avena fatua; settings: for Plant response rating, Wild oat: 0 to 10 scale; for Plant response rating (0 to 10 scale), Wild oat: Rate 100 g/ha
Summary of the method: as §1

rice = type: in vivo, Oryza sativa; settings: for Plant response rating, Rice: 0 to 10 scale; for Plant response rating (0 to 10 scale), Rice: Rate 100 g/ha
Summary of the method: as §1

crabgrass = type: in vivo, Digitaria spp.; settings: for Plant response rating, Crabgrass: 0 to 10 scale
Summary of the method: as §1

corn = type: in vivo, Zea mays; settings: for Plant response rating, Corn: 0 to 10 scale
Summary of the method: as §1

Clc1ccc(-c2nc3n(c2Br)CCCC3)c(Cl)c1 [Compound 2]
Plant response rating, Nutsedge (purple nutsedge; POSTEMERGENCE, Rate 50 g/ha): 0
Plant response rating (0 to 10 scale), Nutsedge (purple nutsedge; POSTEMERGENCE): 0
Plant response rating, Nutsedge (purple nutsedge; POSTEMERGENCE, Rate 200 g/ha): 0
Plant response rating, Nutsedge (purple nutsedge; POSTEMERGENCE, Rate 400 g/ha): 0
Plant response rating, Nutsedge (purple nutsedge; PREEMERGENCE, Rate 50 g/ha): 0
Plant response rating (0 to 10 scale), Nutsedge (purple nutsedge; PREEMERGENCE): 0
Plant response rating, Nutsedge (purple nutsedge; PREEMERGENCE, Rate 400 g/ha): 0
Plant response rating, Nutsedge (purple nutsedge; Rate 200 g/ha, PREEMERGENCE): 0
Plant response rating, Sorghum (sorghum; POSTEMERGENCE, Rate 50 g/ha): 4
Plant response rating (0 to 10 scale), Sorghum (sorghum; POSTEMERGENCE): 4
Plant response rating, Sorghum (sorghum; POSTEMERGENCE, Rate 200 g/ha): 5
Plant response rating, Sorghum (sorghum; POSTEMERGENCE, Rate 400 g/ha): 5
Plant response rating, Sorghum (sorghum; PREEMERGENCE, Rate 50 g/ha): 0
Plant response rating (0 to 10 scale), Sorghum (sorghum; PREEMERGENCE): 0
Plant response rating, Sorghum (sorghum; PREEMERGENCE, Rate 400 g/ha): 0
Plant response rating, Sorghum (sorghum; Rate 200 g/ha, PREEMERGENCE): 0
Plant response rating (0 to 10 scale), Cotton (cotton; POSTEMERGENCE, Rate 50 g/ha): 9
Plant response rating (0 to 10 scale), Cotton (cotton; POSTEMERGENCE, Rate 100 g/ha): 10
Plant response rating, Cotton (cotton; POSTEMERGENCE, Rate 200 g/ha): 9
Plant response rating, Cotton (cotton; POSTEMERGENCE, Rate 400 g/ha): 10
Plant response rating, Cotton (cotton; PREEMERGENCE, Rate 50 g/ha): 0
Plant response rating (0 to 10 scale), Cotton (cotton; PREEMERGENCE, Rate 100 g/ha): 0
Plant response rating, Cotton (cotton; PREEMERGENCE, Rate 400 g/ha): 2
Plant response rating, Cotton (cotton; Rate 200 g/ha, PREEMERGENCE): 0
Plant response rating, Sugar beet (sugar beet; POSTEMERGENCE, Rate 50 g/ha): 9
Plant response rating (0 to 10 scale), Sugar beet (sugar beet; POSTEMERGENCE): 9
Plant response rating, Sugar beet (sugar beet; POSTEMERGENCE, Rate 200 g/ha): 10
Plant response rating, Sugar beet (sugar beet; POSTEMERGENCE, Rate 400 g/ha): 10
Plant response rating, Sugar beet (sugar beet; PREEMERGENCE, Rate 50 g/ha): 0
Plant response rating (0 to 10 scale), Sugar beet (sugar beet; PREEMERGENCE): 0
Plant response rating, Sugar beet (sugar beet; Rate 200 g/ha, PREEMERGENCE): 0
Plant response rating (0 to 10 scale), Blackgrass (blackgrass; POSTEMERGENCE, Rate 50 g/ha): 1
Plant response rating (0 to 10 scale), Blackgrass (blackgrass; POSTEMERGENCE, Rate 100 g/ha): 1
Plant response rating, Blackgrass (blackgrass; POSTEMERGENCE, Rate 200 g/ha): 1
Plant response rating, Blackgrass (blackgrass; POSTEMERGENCE, Rate 400 g/ha): 2
Plant response rating, Blackgrass (blackgrass; PREEMERGENCE, Rate 50 g/ha): 0
Plant response rating (0 to 10 scale), Blackgrass (blackgrass; PREEMERGENCE, Rate 100 g/ha): 0
Plant response rating, Blackgrass (blackgrass; PREEMERGENCE, Rate 400 g/ha): 0
Plant response rating, Blackgrass (blackgrass; Rate 200 g/ha, PREEMERGENCE): 0
Plant response rating, Wheat (wheat; POSTEMERGENCE, Rate 50 g/ha): 1
Plant response rating (0 to 10 scale), Wheat (wheat; POSTEMERGENCE): 2
Plant response rating, Wheat (wheat; POSTEMERGENCE, Rate 200 g/ha): 2
Plant response rating, Wheat (wheat; POSTEMERGENCE, Rate 400 g/ha): 2
Plant response rating, Wheat (wheat; PREEMERGENCE, Rate 50 g/ha): 0
Plant response rating (0 to 10 scale), Wheat (wheat; PREEMERGENCE): 0
Plant response rating, Wheat (wheat; PREEMERGENCE, Rate 400 g/ha): 0
Plant response rating, Wheat (wheat; Rate 200 g/ha, PREEMERGENCE): 0
Plant response rating, Wild oat (wild oat; POSTEMERGENCE, Rate 50 g/ha): 2
Plant response rating (0 to 10 scale), Wild oat (wild oat; POSTEMERGENCE): 2
Plant response rating, Wild oat (wild oat; POSTEMERGENCE, Rate 200 g/ha): 3
Plant response rating, Wild oat (wild oat; POSTEMERGENCE, Rate 400 g/ha): 3
Plant response rating (0 to 10 scale), Wild oat (wild oat; PREEMERGENCE): 0
Plant response rating, Wild oat (wild oat; PREEMERGENCE, Rate 400 g/ha): 0
Plant response rating, Wild oat (wild oat; Rate 200 g/ha, PREEMERGENCE): 0
Plant response rating, Rice (rice; POSTEMERGENCE, Rate 50 g/ha): 3
Plant response rating (0 to 10 scale), Rice (rice; POSTEMERGENCE): 4
Plant response rating, Rice (rice; POSTEMERGENCE, Rate 200 g/ha): 4
Plant response rating, Rice (rice; POSTEMERGENCE, Rate 400 g/ha): 4
Plant response rating, Rice (rice; PREEMERGENCE, Rate 50 g/ha): 0
Plant response rating (0 to 10 scale), Rice (rice; PREEMERGENCE): 0
Plant response rating, Rice (rice; PREEMERGENCE, Rate 400 g/ha): 0
Plant response rating, Rice (rice; Rate 200 g/ha, PREEMERGENCE): 0
Plant response rating (0 to 10 scale), Crabgrass (crabgrass; POSTEMERGENCE, Rate 50 g/ha): 3
Plant response rating (0 to 10 scale), Crabgrass (crabgrass; POSTEMERGENCE, Rate 100 g/ha): 3
Plant response rating, Crabgrass (crabgrass; POSTEMERGENCE, Rate 200 g/ha): 7
Plant response rating, Crabgrass (crabgrass; POSTEMERGENCE, Rate 400 g/ha): 7
Plant response rating, Crabgrass (crabgrass; PREEMERGENCE, Rate 50 g/ha): 0
Plant response rating (0 to 10 scale), Crabgrass (crabgrass; PREEMERGENCE, Rate 100 g/ha): 0
Plant response rating, Crabgrass (crabgrass; Rate 200 g/ha, PREEMERGENCE): 0
Plant response rating (0 to 10 scale), Corn (corn; POSTEMERGENCE, Rate 50 g/ha): 3
Plant response rating (0 to 10 scale), Corn (corn; POSTEMERGENCE, Rate 100 g/ha): 3
Plant response rating, Corn (corn; POSTEMERGENCE, Rate 200 g/ha): 4
Plant response rating, Corn (corn; POSTEMERGENCE, Rate 400 g/ha): 4
Plant response rating, Corn (corn; PREEMERGENCE, Rate 50 g/ha): 0
Plant response rating (0 to 10 scale), Corn (corn; PREEMERGENCE, Rate 100 g/ha): 0
Plant response rating, Corn (corn; PREEMERGENCE, Rate 400 g/ha): 0
Plant response rating, Corn (corn; Rate 200 g/ha, PREEMERGENCE): 0

CCS(=O)(=O)Oc1cc(-c2nn3c(c2Cl)CCCC3)c(F)cc1Cl [Compound 25]
Plant response rating, Nutsedge (purple nutsedge; POSTEMERGENCE, Rate 50 g/ha): 2
Plant response rating, Nutsedge (purple nutsedge; POSTEMERGENCE, Rate 200 g/ha): 8
Plant response rating, Nutsedge (purple nutsedge; PREEMERGENCE, Rate 50 g/ha): 0
Plant response rating, Nutsedge (purple nutsedge; Rate 200 g/ha, PREEMERGENCE): 0
Plant response rating, Sorghum (sorghum; POSTEMERGENCE, Rate 50 g/ha): 4
Plant response rating, Sorghum (sorghum; POSTEMERGENCE, Rate 200 g/ha): 5
Plant response rating, Sorghum (sorghum; PREEMERGENCE, Rate 50 g/ha): 0
Plant response rating, Sorghum (sorghum; Rate 200 g/ha, PREEMERGENCE): 2
Plant response rating (0 to 10 scale), Cotton (cotton; POSTEMERGENCE, Rate 50 g/ha): 10
Plant response rating, Cotton (cotton; POSTEMERGENCE, Rate 200 g/ha): 10
Plant response rating, Cotton (cotton; PREEMERGENCE, Rate 50 g/ha): 4
Plant response rating, Cotton (cotton; Rate 200 g/ha, PREEMERGENCE): 5
Plant response rating, Sugar beet (sugar beet; POSTEMERGENCE, Rate 50 g/ha): 10
Plant response rating, Sugar beet (sugar beet; POSTEMERGENCE, Rate 200 g/ha): 10
Plant response rating, Sugar beet (sugar beet; PREEMERGENCE, Rate 50 g/ha): 7
Plant response rating, Sugar beet (sugar beet; Rate 200 g/ha, PREEMERGENCE): 10
Plant response rating (0 to 10 scale), Blackgrass (blackgrass; POSTEMERGENCE, Rate 50 g/ha): 2
Plant response rating, Blackgrass (blackgrass; POSTEMERGENCE, Rate 200 g/ha): 2
Plant response rating, Blackgrass (blackgrass; PREEMERGENCE, Rate 50 g/ha): 0
Plant response rating, Blackgrass (blackgrass; Rate 200 g/ha, PREEMERGENCE): 3
Plant response rating, Wheat (wheat; POSTEMERGENCE, Rate 50 g/ha): 3
Plant response rating, Wheat (wheat; POSTEMERGENCE, Rate 200 g/ha): 4
Plant response rating, Wheat (wheat; PREEMERGENCE, Rate 50 g/ha): 0
Plant response rating, Wheat (wheat; Rate 200 g/ha, PREEMERGENCE): 2
Plant response rating, Wild oat (wild oat; POSTEMERGENCE, Rate 50 g/ha): 3
Plant response rating, Wild oat (wild oat; POSTEMERGENCE, Rate 200 g/ha): 4
Plant response rating, Wild oat (wild oat; Rate 200 g/ha, PREEMERGENCE): 4
Plant response rating, Rice (rice; POSTEMERGENCE, Rate 50 g/ha): 4
Plant response rating, Rice (rice; POSTEMERGENCE, Rate 200 g/ha): 9
Plant response rating, Rice (rice; PREEMERGENCE, Rate 50 g/ha): 0
Plant response rating, Rice (rice; Rate 200 g/ha, PREEMERGENCE): 0
Plant response rating (0 to 10 scale), Crabgrass (crabgrass; POSTEMERGENCE, Rate 50 g/ha): 3
Plant response rating, Crabgrass (crabgrass; POSTEMERGENCE, Rate 200 g/ha): 2
Plant response rating, Crabgrass (crabgrass; PREEMERGENCE, Rate 50 g/ha): 5
Plant response rating, Crabgrass (crabgrass; Rate 200 g/ha, PREEMERGENCE): 7
Plant response rating (0 to 10 scale), Corn (corn; POSTEMERGENCE, Rate 50 g/ha): 3
Plant response rating, Corn (corn; POSTEMERGENCE, Rate 200 g/ha): 6
Plant response rating, Corn (corn; PREEMERGENCE, Rate 50 g/ha): 0
Plant response rating, Corn (corn; Rate 200 g/ha, PREEMERGENCE): 0
